Measurements taken from ChEMBL document CHEMBL1201862, “PubChem BioAssay data set” (2004).
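Tested at 5 concentrations; 48 h exposure; 96-well plates; endpoints linearly interpolated, else capped at highest concentration. GI50 is the concentration that inhibits growth by half.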 Active and inactive are the calls of the source. Cut-off read from the data, not from the text of the source: active = GI50 up to about 1.1 µM and inactive = higher.

Key:
Assay in all cases: inhibition of tumour cell growth, NCI panel, 48 h
[1] = system: 786-0
[2] = system: A498
[3] = system: A549
[4] = system: ACHN
[5] = system: CAKI-1
[6] = system: CCRF-CEM
[7] = system: COLO 205
[8] = system: DLD-1
[9] = system: DMS-114
[10] = system: DMS-273
[11] = system: EKVX
[12] = system: HCT-116
[13] = system: HCT-15
[14] = system: HL-60
[15] = system: HOP-18
[16] = system: HOP-92
[17] = system: IGROV-1
[18] = system: K562
[19] = system: KM-20L2
[20] = system: KM12
[21] = system: LXFL 529
[22] = system: M14
[23] = system: M19-MEL
[24] = system: MOLT-4
[25] = system: Malme-3M
[26] = system: NCI-H226
[27] = system: NCI-H23
[28] = system: NCI-H460
[29] = system: NCI-H522
[30] = system: OVCAR-3
[31] = system: OVCAR-4
[32] = system: OVCAR-5
[33] = system: OVCAR-8
[34] = system: RPMI-8226
[35] = system: SF-268
[36] = system: SF-295
[37] = system: SF-539
[38] = system: SK-MEL-28
[39] = system: SK-MEL-2
[40] = system: SK-MEL-5
[41] = system: SK-OV-3
[42] = system: SN12C
[43] = system: SNB-19
[44] = system: SNB-75
[45] = system: SNB-78
[46] = system: SW-620
[47] = system: TK-10
[48] = system: U-251
[49] = system: UACC-257
[50] = system: UACC-62
[51] = system: UO-31
[52] = system: XF498
[53] = system: BT-549
[54] = system: DU-145
[55] = system: HCC 2998
[56] = system: HOP-62
[57] = system: HT-29
[58] = system: LOX IMVI
[59] = system: MCF7
[60] = system: MDA-MB-231
[61] = system: MDA-N
[62] = system: NCI/ADR-RES
[63] = system: PC-3
[64] = system: RXF 393
[65] = system: SR
[66] = system: T47D

Cc1c(C(=O)CC(=O)C(=O)Nc2ccc(Cl)cc2)[n+]([O-])c2ccccc2[n+]1[O-]
GI50 [1]: > 100 µM (inactive) | GI50 [2]: > 100 µM (inactive) | GI50 [3]: > 100 µM (inactive) | GI50 [4]: > 100 µM (inactive) | GI50 [5]: > 100 µM (inactive) | GI50 [6]: > 100 µM (inactive) | GI50 [7]: > 100 µM (inactive) | GI50 [8]: > 100 µM (inactive) | GI50 [9]: > 100 µM (inactive) | GI50 [10]: > 100 µM (inactive) | GI50 [11]: > 100 µM (inactive) | GI50 [12]: > 100 µM (inactive) | GI50 [13]: > 100 µM | GI50 [14]: > 100 µM (inactive) | GI50 [15]: 75 µM (inactive) | GI50 [16]: > 100 µM (inactive) | GI50 [17]: > 100 µM (inactive) | GI50 [18]: > 100 µM (inactive) | GI50 [19]: > 100 µM (inactive) | GI50 [20]: > 100 µM (inactive) | GI50 [21]: > 100 µM (inactive) | GI50 [22]: > 100 µM (inactive) | GI50 [23]: > 100 µM (inactive) | GI50 [24]: > 100 µM (inactive) | GI50 [25]: > 100 µM (inactive) | GI50 [26]: > 100 µM (inactive) | GI50 [27]: > 100 µM (inactive) | GI50 [28]: > 100 µM (inactive) | GI50 [29]: > 100 µM (inactive) | GI50 [30]: > 100 µM (inactive) | GI50 [31]: > 100 µM (inactive) | GI50 [32]: > 100 µM (inactive) | GI50 [33]: > 100 µM (inactive) | GI50 [34]: > 100 µM (inactive) | GI50 [35]: > 100 µM (inactive) | GI50 [36]: > 100 µM (inactive) | GI50 [37]: > 100 µM (inactive) | GI50 [38]: > 100 µM (inactive) | GI50 [39]: > 100 µM (inactive) | GI50 [40]: > 100 µM (inactive) | GI50 [41]: > 100 µM (inactive) | GI50 [42]: > 100 µM (inactive) | GI50 [43]: > 100 µM (inactive) | GI50 [44]: 18.7 µM (inactive) | GI50 [45]: > 100 µM (inactive) | GI50 [46]: > 100 µM (inactive) | GI50 [47]: > 100 µM (inactive) | GI50 [48]: > 100 µM (inactive) | GI50 [49]: > 100 µM (inactive) | GI50 [50]: > 100 µM (inactive) | GI50 [51]: > 100 µM (inactive) | GI50 [52]: > 100 µM (inactive)

COc1cc(C2c3cc4c(cc3[C@H](NC(=O)c3cccs3)C3COC(=O)[C@H]23)OCO4)cc(OC)c1OC (stereo partly drawn)
GI50 [1]: < 0.0221 µM (active) | GI50 [2]: 0.012 µM (active) | GI50 [3]: < 0.019 µM (active) | GI50 [4]: < 0.0174 µM (active) | GI50 [53]: < 0.01 µM (active) | GI50 [6]: < 0.0179 µM (active) | GI50 [7]: 0.0109 µM (active) | GI50 [8]: 0.0297 µM (active) | GI50 [9]: 0.0113 µM (active) | GI50 [10]: 0.0188 µM (active) | GI50 [54]: < 0.01 µM (active) | GI50 [11]: 0.0731 µM (active) | GI50 [55]: < 0.0181 µM (active) | GI50 [12]: < 0.0131 µM (active) | GI50 [13]: < 0.0214 µM | GI50 [14]: < 0.01 µM (active) | GI50 [15]: > 100 µM (inactive) | GI50 [56]: < 0.0144 µM (active) | GI50 [16]: 0.0198 µM (active) | GI50 [57]: 0.012 µM (active) | GI50 [17]: 0.0147 µM (active) | GI50 [18]: < 0.0156 µM (active) | GI50 [19]: 0.0199 µM (active) | GI50 [20]: < 0.01 µM (active) | GI50 [58]: < 0.0107 µM (active) | GI50 [21]: 0.0296 µM (active) | GI50 [22]: < 0.0197 µM (active) | GI50 [59]: < 0.01 µM (active) | GI50 [60]: < 0.01 µM (active) | GI50 [61]: < 0.01 µM (active) | GI50 [24]: < 0.0149 µM (active) | GI50 [25]: 92.3 µM (inactive) | GI50 [26]: 0.668 µM (active) | GI50 [27]: < 0.0143 µM (active) | GI50 [28]: 0.0172 µM (active) | GI50 [29]: < 0.01 µM (active) | GI50 [62]: 0.026 µM (active) | GI50 [30]: 0.0361 µM (active) | GI50 [32]: > 46.9 µM (inactive) | GI50 [33]: < 0.01 µM (active) | GI50 [63]: < 0.01 µM (active) | GI50 [34]: 0.0134 µM (active) | GI50 [64]: 0.0133 µM (active) | GI50 [35]: < 0.0195 µM (active) | GI50 [36]: < 0.01 µM (active) | GI50 [37]: < 0.01 µM (active) | GI50 [38]: 0.0708 µM (active) | GI50 [39]: 34.1 µM (inactive) | GI50 [40]: < 0.014 µM (active) | GI50 [41]: 0.027 µM (active) | GI50 [42]: < 0.0187 µM (active) | GI50 [43]: < 0.018 µM (active) | GI50 [44]: < 0.0152 µM (active) | GI50 [45]: > 100 µM (inactive) | GI50 [65]: 0.0122 µM (active) | GI50 [46]: < 0.016 µM (active) | GI50 [66]: 46.7 µM (inactive) | GI50 [47]: > 40.9 µM (inactive) | GI50 [48]: < 0.0148 µM (active) | GI50 [50]: < 0.0128 µM (active) | GI50 [51]: 0.0811 µM (active)
